Laboratory results from patent US5574161A, “7-(aminomethyl-oxa-7-aza-bicyclo[3.3.0]oct-7-yl)quinolonecarboxylic and 7-(aminomethyl-oxa-7-aza-bicyclo[3.3.0]oct-7-yl naphthyridonecarboxylic acid derivatives” (Bayer Aktiengesellschaft, priority 1992, dated 1996).

Key:
Type in all cases: cell-based
Escherichia coli 455/7 = test: MIC, agar serial dilution, Escherichia coli 455/7; details: Iso-Sensitest agar, 37° C., about 20 hours
Description: (§1) The minimum inhibitory concentrations (MIC) were determined by means of serial dilution methods on Iso-Sensitest agar (Oxoid). For each substance to be tested, a series of agar plates was prepared which contained concentrations of the active compound which in each case decreased by a doubling dilution. The agar plates were inoculated with a Multipoint inoculator (Denley). For the inoculation, overnight cultures of the pathogens were used which had previously been diluted so that each inoculation spot contained about 10^4 colony-forming particles. The inoculated agar plates were incubated at 37° C. and the organism growth was recorded after about 20 hours. The MIC value (μg/ml) indicates the lowest concentration of active compound at which no growth was detected with the naked eye.
(§2) In the table below, the MIC values of some of the compounds according to the invention are listed in comparison with 1-cyclopropyl-6,8-difluoro-1,4-dihydro-7-(cis-2-oxa-5,8-diazabicyclo[4.3.0]non-8-yl)-4-oxo-3-quinoline-carboxylic acid hydrochloride (reference example A) and 8-chloro-1-cyclopropyl-6-fluoro-1,4-dihydro-7-(cis-2-oxa-5,8-diazabicyclo[4.3.0]non-8-yl)-4-oxo-3-quinoline-carboxylic acid hydrochloride (reference example B).

[1] = system: Klebsiella pneumoniae 8085; test: MIC, agar serial dilution, Klebsiella pneumoniae 8085; details: Iso-Sensitest agar, 37° C., about 20 hours
Description: as §1, §2

[2] = system: Enterobacter cloacae 2427; test: MIC, agar serial dilution, Enterobacter cloacae 2427; details: Iso-Sensitest agar, 37° C., about 20 hours
Description: as §1, §2

[3] = system: Enterobacter aerog. ICB 5240; test: MIC, agar serial dilution, Enterobacter aerog. ICB 5240; details: Iso-Sensitest agar, 37° C., about 20 hours
Description: as §1, §2

Morganella morganii 932 = test: MIC, agar serial dilution, Morganella morganii 932; details: Iso-Sensitest agar, 37° C., about 20 hours
Description: as §1, §2

Providencia sp. 12012 = test: MIC, agar serial dilution, Providencia sp. 12012; details: Iso-Sensitest agar, 37° C., about 20 hours
Description: as §1, §2

Micrococcus luteus 9341 = test: MIC, agar serial dilution, Micrococcus luteus 9341; details: Iso-Sensitest agar, 37° C., about 20 hours
Description: as §1, §2

[4] = system: Staphylococcus aureus ICB 25701; test: MIC, agar serial dilution, Staphylococcus aureus ICB 25701; details: ICB25701, Iso-Sensitest agar, 37° C., about 20 hours
Description: as §1, §2

[5] = system: Staphylococcus aureus 1756; test: MIC, agar serial dilution, Staphylococcus aureus 1756; details: Iso-Sensitest agar, 37° C., about 20 hours
Description: as §1, §2

[6] = system: Staphylococcus aureus 133; test: MIC, agar serial dilution, Staphylococcus aureus 133; details: Iso-Sensitest agar, 37° C., about 20 hours
Description: as §1, §2

[7] = system: Enterococcus faecalis 27101; test: MIC, agar serial dilution, Enterococcus faecalis 27101; details: Iso-Sensitest agar, 37° C., about 20 hours
Description: as §1, §2

[8] = system: Enterococcus faecalis 9790; test: MIC, agar serial dilution, Enterococcus faecalis 9790; details: Iso-Sensitest agar, 37° C., about 20 hours
Description: as §1, §2

[9] = system: Pseudomonas aeruginosa ICB 308029; test: MIC, agar serial dilution, Pseudomonas aeruginosa ICB 308029; details: ICB308029, Iso-Sensitest agar, 37° C., about 20 hours
Description: as §1, §2

MIC (Escherichia coli 455/7) [µg/mL] | MIC [1] [µg/mL] | MIC [2] [µg/mL] | MIC [3] [µg/mL] | MIC (Morganella morganii 932) [µg/mL] | MIC (Providencia sp. 12012) [µg/mL] | MIC (Micrococcus luteus 9341) [µg/mL] | MIC [4] [µg/mL] | MIC [5] [µg/mL] | MIC [6] [µg/mL] | MIC [7] [µg/mL] | MIC [8] [µg/mL] | MIC [9] [µg/mL] | SMILES
1 | 0.03 | 0.06 | 8 | 0.03 | 0.03 | 0.125 | 0.25 | 0.0039 | 0.015 | 0.03 | 0.06 | 32 | NCC12CN(c3c(F)cc4c(=O)c(C(=O)O)cn(C5CC5)c4c3Cl)CC1CCO2.O=C(O)C(F)(F)F (stereo not shown) [Example 2B, 7-(1-aminomethyl-2-oxa-7-aza-bicyclo[3.3.0]oct-7-yl)-8-chloro-1-cyclopropyl-6-fluoro-1,4-dihydro-4-oxo-3-quinolinecarboxylic acid trifluoroacetate]
2 | 0.06 | 0.06 | 8 | 0.03 | 0.06 | 0.25 | 1 | ≤ 0.015 | 0.06 | 0.06 | 0.125 | 16 | Cl.NCC12CN(c3c(F)cc4c(=O)c(C(=O)O)cn(C5CC5)c4c3F)CC1CCO2 (stereo not shown) [Example 1B, 7-(1-aminomethyl-2-oxa-7-aza-bicyclo[3.3.0]oct-7-yl) -1-cyclopropyl-6,8-difluoro-1,4-dihydro-4-oxo-3-quinolinecarboxylic acid hydrochloride]
4 | 0.06 | 0.125 | 32 | 0.125 | 0.125 | 0.5 | 2 | 0.06 | 0.06 | 0.25 | 0.25 | 64 | Cl.O=C(O)c1cn(C2CC2)c2c(F)c(N3C[C@@H]4NCCO[C@@H]4C3)c(F)cc2c1=O (relative stereo) [A, 1-cyclopropyl-6,8-difluoro-1,4-dihydro-7-(cis-2-oxa-5,8-diazabicyclo[4.3.0]non-8-yl)-4-oxo-3-quinoline-carboxylic acid hydrochloride]
2 | 0.06 | 0.25 | 16 | 0.06 | 0.06 | 0.25 | 0.5 | 0.015 | 0.03 | 0.125 | 0.125 | 64 | Cl.O=C(O)c1cn(C2CC2)c2c(Cl)c(N3C[C@@H]4NCCO[C@@H]4C3)c(F)cc2c1=O (relative stereo) [B, 8-chloro-1-cyclopropyl-6-fluoro-1,4-dihydro-7-(cis-2-oxa-5,8-diazabicyclo[4.3.0]non-8-yl)-4-oxo-3-quinoline-carboxylic acid hydrochloride]
